Assay results: US9802899B2, “Heterocyclic compounds as pesticides” (BAYER CROPSCIENCE AG, priority 2012, dated 2017)

Assay: Determination of the log P values by HPLC (formic acid method)
Type: physicochemical
Conditions: reversed-phase HPLC column (C 18), reversed-phase column (C 18), acidic range (pH 3.4), 55° C.
Method: 1) Description of Method for Determination of the Log P Values (Formic Acid Method)
Eluents for determination in the acidic range (pH 3.4):
Eluent A: acetonitrile+1 ml of formic acid/liter. Eluent B: water+0.9 ml of formic acid/liter.
The lambda max values were determined in the maxima of the chromatographic signals using the UV spectra from 200 nm to 400 nm.

Going from `CC(=O)Nc1cc(F)c(-n2ccc(NC(=O)c3ccccc3C(F)(F)F)n2)c(F)c1` [Compound I-1-583, N-[1-(4-Acetamido-2,6-difluorophenyl)-1H-pyrazol-3-yl]-2-(trifluoromethyl)benzamide] to `CC(=O)c1cc(F)c(-n2ccc(NC(=O)c3ccccc3C(F)(F)F)n2)c(F)c1` [Compound I-1-584, N-[1-(4-Acetyl-2,6-difluorophenyl)-1H-pyrazol-3-yl]-2-(trifluoromethyl)benzamide], the chromatographic logP rises from 2.28 to 2.7.

First: Nc1ccn(-c2cccc(Cl)c2F)n1 [1-(3-Chloro-2-fluorophenyl)-1H-pyrazole-3-amine]
Second: N#Cc1cncnc1-n1ccc(N)n1 [4-(3-Amino-1H-pyrazol-1-yl)pyrimidine-5-carbonitrile]
The chromatographic logP of the first is higher: 1.9 for the first, 0.59 for the second.

Going from `O=C(O)c1ccccc1C(=O)Nc1ccn(-c2c(F)cc([N+](=O)[O-])cc2F)n1` [2-{[1-(2,6-Difluoro-4-nitrophenyl)-1H-pyrazol-3-yl]carbamoyl}benzoic acid] to `N#Cc1cc(F)cc(F)c1-n1ccc(NC(=O)c2ccccc2C(F)(F)F)n1` [Compound I-1-393, N-[1-(2-Cyano-4,6-difluorophenyl)-1H-pyrazol-3-yl]-2-(trifluoromethyl)benzamide], the chromatographic logP rises from 1.85 to 2.65.

Compound `N#Cc1c(-n2ccc(NC(=O)c3ccccc3C(F)(F)F)n2)ccnc1Cl` [Compound I-1-585, N-[1-(2-Chloro-3-cyanopyridin-4-yl)-1H-pyrazol-3-yl]-2-(trifluoromethyl)benzamide] has a chromatographic logP of 2.67.

Same assay, conditions: reversed-phase column (C 18), acidic range (pH 3.4), 55° C.

First: N#Cc1cncnc1-n1ccc(NC(=O)c2ccccc2C(F)(F)F)n1 [Compound I-1-594]
Second: O=C(Nc1ccn(-c2ncc(Cl)cc2F)n1)c1ccccc1C(F)(F)F [Compound I-1-587]
The “log P” value of the first is lower: 2.34 for the first, 2.91 for the second.

`O=C(Nc1ccn(-c2cc(F)ccc2F)n1)c1occc1I` [Compound I-1-222] and `O=C(Nc1ccn(-c2c(F)cccc2F)c1)c1occc1I` [Compound I-3-6] are within 0.2 log units of each other in “log P” value: 3.14 for the first, 2.96 for the second.

`Nc1cc(NC(=O)c2ccccc2Cl)nn1-c1ccccc1Cl` [Compound I-1-361] and `Nc1cc(NC(=O)c2ccccc2Br)nn1-c1ccccc1Cl` [Compound I-1-355] are within 0.2 log units of each other in “log P” value: 1.88 for the first, 1.94 for the second.

Going from `O=C(Nc1ccn(-c2cncc(F)n2)n1)c1cccnc1Br` [Compound I-1-404] to `O=C(Nc1ccn(-c2ncc(Cl)cc2Cl)n1)c1cccnc1Br` [Compound I-1-431], the “log P” value falls from 3.19 to 2.29.

`O=C(Nc1ccn(-c2nc(F)c(F)cc2F)n1)c1ccccc1Cl` [Compound I-1-163] and `Cc1nc(-n2ccc(NC(=O)c3ccccc3Br)n2)c(F)cc1F` [Compound I-1-442] are within 0.2 log units of each other in “log P” value: 2.64 for the first, 2.71 for the second.

`O=C(Nc1ccn(-c2cccc(Cl)c2F)n1)c1ccccc1Br` [Compound I-1-557] and `O=C(Nc1ccn(-c2cccc(Cl)c2Cl)n1)c1ccccc1Br` [Compound I-1-187] are within 0.2 log units of each other in “log P” value: 3.31 for the first, 3.41 for the second.

Compared with `O=C(Nc1ccn(-c2ccccc2[N+](=O)[O-])n1)c1cccnc1C(F)(F)F` [Compound I-1-416], `O=C(Nc1ccn(-c2ccccc2[N+](=O)[O-])n1)c1ccccc1C(F)(F)F` [Compound I-1-415] is higher in “log P” value: 2.16 for the first, 2.63 for the second.

Compared with `CCOc1c(F)cccc1-n1ccc(NC(=O)c2ccccc2Cl)n1` [Compound I-1-397], `O=C(Nc1ccn(-c2ncccc2F)n1)c1ccccc1Cl` [Compound I-1-129] is lower in “log P” value: 2.74 for the first, 2.05 for the second.

Going from `O=C(Nc1ccn(-c2c(F)cccc2F)n1)c1ccncc1C(F)(F)F` [Compound I-1-97] to `O=C(Nc1ccn(-c2ncccc2F)n1)c1c(F)cccc1C(F)(F)F` [Compound I-1-580], the “log P” value rises from 2.16 to 2.36.

First: O=C(c1ccccc1C(F)(F)F)N(CC(F)F)c1ccn(-c2c(F)cccc2F)n1 [Compound I-1-264]
Second: O=C(Nc1ccn(-c2cc(F)c(F)cc2F)n1)c1ccccc1C(F)(F)F [Compound I-1-191]
The “log P” value of the first is lower: 3.38 for the first, 4.04 for the second.

`O=C(Nc1ccn(-c2ncc(Cl)cc2F)n1)c1c(F)cccc1C(F)(F)F` [Compound I-1-591] and `Cc1nc(-n2ccc(NC(=O)c3ccccc3C(F)(F)F)n2)c(F)cc1F` [Compound I-1-439] are within 0.2 log units of each other in “log P” value: 2.98 for the first, 2.85 for the second.

First: O=C(Nc1ccn(-c2c(F)cccc2F)n1)c1nccnc1Cl [Compound I-1-100]
Second: Cc1nonc1C(=O)Nc1ccn(-c2c(F)cccc2F)n1 [Compound I-1-116]
The “log P” value of the first is lower: 2.15 for the first, 2.53 for the second.

`COc1ccccc1C(=O)Nc1ccn(-c2ncc(F)cc2F)n1` [Compound I-1-496] and `O=C(Nc1ccn(-c2ncc(F)cc2F)n1)c1ccccc1Br` [Compound I-1-144] are within 0.2 log units of each other in “log P” value: 2.55 for the first, 2.36 for the second.

`CS(=O)(=O)c1ccccc1-n1ccc(NC(=O)c2ccccc2Cl)n1` [Compound I-1-126] and `Cc1cc(NC(=O)c2ccccc2S(C)(=O)=O)nn1-c1ccccc1Cl` [Compound I-1-342] are within 0.2 log units of each other in “log P” value: 1.96 for the first, 1.82 for the second.

Going from `Cc1cc(NC(=O)c2ccccc2OC(F)(F)F)nn1-c1ccccc1Cl` [Compound I-1-343] to `Cc1cc(NC(=O)c2ccccc2Cl)nn1-c1ccc(F)cc1F` [Compound I-1-212], the “log P” value rises from 2.87 to 3.58.

Compared with `CCC(C)n1ncc(I)c1C(=O)Nc1ccn(-c2c(F)cccc2F)n1` (centres unmarked) [Compound I-1-245], `Cn1ncc(Br)c1C(=O)Nc1ccn(-c2c(F)cccc2F)n1` [Compound I-1-302] is lower in “log P” value: 3.47 for the first, 2.50 for the second.

First: Cc1nc(-n2ccc(NC(=O)c3c(F)cccc3F)n2)c(F)cc1F [Compound I-1-441]
Second: Cc1cc(NC(=O)c2c(F)cccc2F)nn1-c1ccc(F)cc1F [Compound I-1-206]
The “log P” value of the first is lower: 2.56 for the first, 3.42 for the second.

Going from `CCCc1c(Cl)c(C(=O)Nc2ccn(-c3c(F)cccc3F)n2)nn1C` [Compound I-1-314] to `Cc1nn(C)c(C)c1C(=O)Nc1ccn(-c2c(F)cccc2F)n1` [Compound I-1-109], the “log P” value falls from 3.32 to 1.77.

`O=C(Nc1cnn(-c2ncccc2F)n1)c1ccsc1I` [Compound I-2-50] and `O=C(Nc1cnn(-c2ncccc2Cl)n1)c1c(F)cccc1F` [Compound I-2-15] are within 0.2 log units of each other in “log P” value: 2.20 for the first, 2.09 for the second.

Going from `O=C(Nc1ccn(-c2ccccc2Cl)n1)c1nccnc1Cl` [Compound I-1-363] to `O=C(Nc1ccn(-c2ccccc2Cl)n1)c1ccsc1I` [Compound I-1-47], the “log P” value rises from 2.45 to 3.05.

First: O=C(Nc1nn(-c2ncc(F)cc2F)cc1Cl)c1ccccc1C(F)(F)F [Compound I-1-473]
Second: O=C(Nc1ccn(-c2ncc(F)cc2F)n1)c1ccccc1SC(F)(F)F [Compound I-1-149]
The “log P” value of the first is lower: 2.62 for the first, 2.98 for the second.

First: O=C(Nc1ccn(-c2c(F)cccc2F)n1)c1ccnn1C(F)F [Compound I-1-111]
Second: Cn1cc(C(=O)Nc2ccn(-c3c(F)cccc3F)n2)c(I)n1 [Compound I-1-108]
The “log P” value of the first is higher: 2.40 for the first, 2.03 for the second.

Going from `Cc1cc(NC(=O)c2ccccc2Br)nn1-c1ccc(F)cc1F` [Compound I-1-208] to `N#Cc1cc(F)ccc1-n1ccc(NC(=O)c2ccccc2Br)n1` [Compound I-1-629], the “log P” value falls from 3.63 to 2.55.

First: Cn1nc(C(F)(F)F)c(C(=O)Nc2ccn(-c3ccccc3Cl)n2)c1F [Compound I-1-383]
Second: Cc1ccc(-n2ccc(NC(=O)c3ccccc3Cl)n2)c(Cl)c1 [Compound I-1-339]
The “log P” value of the first is lower: 2.86 for the first, 3.20 for the second.

`O=C(Nc1cnn(-c2ncc(F)cc2F)n1)c1ccccc1I` [Compound I-2-73] and `O=C(Nc1cnn(-c2ncc(F)cc2F)n1)c1ccccc1Br` [Compound I-2-68] are within 0.2 log units of each other in “log P” value: 2.39 for the first, 2.27 for the second.

Going from `CC(C)n1nc([N+](=O)[O-])c(Cl)c1C(=O)Nc1ccn(-c2c(F)cccc2F)n1` [Compound I-1-310] to `Cc1nc(C)c(C(=O)Nc2ccn(-c3c(F)cccc3F)n2)s1` [Compound I-1-113], the “log P” value falls from 3.28 to 2.09.

Compared with `O=C(Nc1nn(-c2ncc(F)cc2F)c2ccccc12)c1ccccc1Br` [Compound I-5-3], `O=C(Nc1ccn(-c2ccccn2)n1)c1ccccc1Br` [Compound I-1-127] is lower in “log P” value: 3.09 for the first, 2.36 for the second.

Compared with `O=C(Nc1cnn(-c2ncccc2Br)n1)c1ccccc1C(F)(F)F` [Compound I-2-17], `O=C(Nc1cnn(-c2ccc(C(F)(F)F)cn2)n1)c1ccccc1C(F)(F)F` [Compound I-2-42] is higher in “log P” value: 2.46 for the first, 3.02 for the second.

`Cc1ccsc1C(=O)Nc1ccn(-c2c(F)cccc2F)n1` [Compound I-1-103] and `O=C(Nc1ccn(-c2c(F)cccc2F)n1)c1c(Cl)cccc1Cl` [Compound I-1-267] are within 0.2 log units of each other in “log P” value: 2.64 for the first, 2.72 for the second.

First: O=C(Nc1ccn(-c2ccc(Cl)cc2Cl)n1)c1ccccc1Cl [Compound I-1-200]
Second: O=C(Nc1ccn(-c2ncccc2Cl)n1)c1ccccc1I [Compound I-1-138]
The “log P” value of the first is higher: 3.40 for the first, 2.36 for the second.

Going from `CC1=C(C(=O)Nc2ccn(-c3c(F)cccc3F)n2)S(=O)(=O)CCO1` [Compound I-1-616] to `O=C(Nc1ccn(-c2c(F)cccc2F)c1)c1ccsc1I` [Compound I-3-7], the “log P” value rises from 1.80 to 3.07.

`COc1ccccc1-n1ccc(NC(=O)c2cccnc2Br)n1` [Compound I-1-409] and `O=C(Nc1ccn(-c2nccnc2F)n1)c1ccccc1Br` [Compound I-1-175] are within 0.2 log units of each other in “log P” value: 2.12 for the first, 2.09 for the second.

Going from `O=C(c1cccc(Cl)c1Cl)N(C(=O)c1cccc(Cl)c1Cl)c1ccn(-c2ncc(F)cc2F)n1` [Compound I-1-477] to `Cc1nn(C)c(C)c1C(=O)Nc1ccn(-c2ncc(F)cc2F)n1` [Compound I-1-445], the “log P” value falls from 4.47 to 1.60.

First: CCn1nc(C)c(Br)c1C(=O)Nc1ccn(-c2ncc(F)cc2F)n1 [Compound I-1-519]
Second: O=C(Nc1ccn(-c2ncccc2F)n1)c1cccnc1Cl [Compound I-1-579]
The “log P” value of the first is higher: 2.93 for the first, 1.53 for the second.

With `Cc1nn(-c2ncccc2Cl)nc1NC(=O)c1ccccc1I` [Compound I-2-59] the “log P” value was 2.28.

For `Nc1ccn(-c2ncc(F)cc2F)n1` [1-(3,5-Difluoropyridin-2-yl)-1H-pyrazole-3-amine], the chromatographic logP was 0.81.
